Structures are written as SMILES.

The test relates to Candida Albicans 44858. The experiment in a line: Antifungal activity in mice infected intravenously with Candida Albicans 44858 (dead mice counted). In kind it is in vivo. The note with it: female mice, 106 CFU per mouse into the tail vein. The method, then: Antifungal activity of the product of Example 1 or product P.
Female mice were used weighing 18 to 22 g. A quantity of Candida Albicans 44858 at a rate of 10^6 CFU per mouse (CFU: colony forming unit) is administered into the vein of the tail. The mice are separated into 5 batches of 5 mice and they are treated as follows:
group 1: the mice are treated with product P 25 mg/kg by oral route
group 2: the mice are treated with product P by intraperitoneal route at a rate of 25 mg/kg
group 3: the mice are treated with fluconazole (25 mg/kg by oral route).
group 4: the mice are treated with fluconazole (25 mg/kg by intraperitoneal route).
group 5: the mice receive no antifungal treatment.
For a period of 22 days, the dead mice are counted.

`CCC(C)n1ncn(-c2ccc(/C=C/CN3CCc4cc(OC[C@H]5CO[C@](Cn6ccnc6)(c6ccc(Cl)cc6Cl)O5)ccc4C3)cc2)c1=O` (relative stereo) [Example 1, 2,4-dihydro-4-[4-[3-[6-[[(cis)-2-(2,4-dichlorophenyl)-2-(1H-imidazol-1-ylmethyl)-1,3-dioxolan-4-yl]-methoxy]-1,2,3,4-tetrahydro-2-isoquinolinyl]-1(E)-propenyl]-phenyl]-2-(1-methylpropyl)-3H-1,2,4-triazol-3-one.]: the “Antifungal activity (dead mice counted for a period of 22 days)” value is given as “excellent activity” (25 mg/kg by intraperitoneal route 1 hour after infection) and “excellent activity” (25 mg/kg by oral route 1 hour after infection).

(Values after patent US20030187267A1, “Novel 1,2,3,4-tetrahydroisoquinoline, their preparation method and their use as fungicides” (priority 2000, published 2003).)
